Results taken from article PMC4865847, “Putative histidine kinase inhibitors with antibacterial effect against multi-drug resistant clinical isolates identified by in vitro and in silico screens” (Scientific Reports, 2016).
Values after ≈ are worked out from the molar mass of the structure shown. Where two headings read alike, the source gives them in different places.

Legend:
Staphylococcus aureus = experiment: Antibacterial susceptibility testing (MIC/MBC), S. aureus; format: cell-based; settings: for MIC / MBC: Staphylococcus aureus; for MBC: read-out: MBC S. aureus DSM 20231
Method: (§1) Minimal inhibitory concentrations (MICs) were determined following a standard double-dilution method. […] For S. pneumoniae MICs were determined by adapting the standard double-dilution method to anaerobic conditions and of this microorganism (use of Todd Hewitt Yeast extract with 200 U/mL of catalase and continuous monitoring of growth).

[1] = tested on: Staphylococcus epidermidis; experiment: Antibacterial susceptibility testing (MIC/MBC), S. epidermidis; format: cell-based; settings: for MBC / MIC: Staphylococcus epidermidis
Method: as §1

Escherichia coli = experiment: Antibacterial susceptibility testing (MIC/MBC), E. coli; format: cell-based; settings: Escherichia coli
Method: as §1

Streptococcus suis = experiment: Antibacterial susceptibility testing (MIC), S. suis; format: cell-based; settings: Streptococcus suis, read-out: MIC Streptococcus suis 3881/S10, strain 3881/S10
Procedure, shortened: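 Compounds were serially double-diluted against each strain. The lowest concentration with no visible growth was recorded as the MIC. Dilutions around the MIC were then plated or regrown in MH medium to define the MBC. Pneumococcal testing ran anaerobically with catalase (200 U/mL) in Todd Hewitt yeast extract under continuous growth monitoring.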

Acinetobacter baumannii = experiment: Antibacterial susceptibility testing (MIC), A. baumannii; format: cell-based
Procedure, shortened: (§2)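 Susceptibility is given as MIC by the standard double-dilution method, defined as no visible growth. For S. pneumoniae, conditions were anaerobic with Todd Hewitt yeast extract plus 200 U/mL catalase.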

[2] = tested on: Stenotrophomonas maltophilia; experiment: Antibacterial susceptibility testing (MIC), S. maltophilia; format: cell-based
Procedure, shortened: as §2

Klebsiella pneumoniae = experiment: Antibacterial susceptibility testing (MIC), K. pneumoniae; format: cell-based; settings: for MIC: Klebsiella pneumoniae, ATCC700603, strain ATCC 700603
Procedure, shortened: as §2

Pseudomonas aeruginosa = experiment: Antibacterial susceptibility testing (MIC), P. aeruginosa; format: cell-based; settings: strain ATCC 27853; for MIC: Pseudomonas aeruginosa, ATCC27853
Procedure, shortened: as §2

Hemolysis assay = format: cell-based; settings: human
Method: Hemolytic activity against human erythrocytes taken from a healthy donor was measured as previously described. The hemolysis experiments were carried out in accordance with the guidelines of the United Arab Emirates University (UAEU) Research Ethics Review Board. All experimental protocols were approved by the Research Ethics Review Board of UAEU and informed consent was obtained from all donors.

E. coli PhoR (PhoR^E) = target: T1, E. coli PhoR (PhoR^E) (Escherichia coli, UniProt P08400); experiment: Aggregation analysis by native-PAGE, PhoR^E; settings: 2 mM (S5 and S6 5 mM), 10% DMSO
T1 construct: The catalytic portion (DHp and CA domain) of E. coli PhoR (PhoR^E); made in house; host or cells: E. coli RIL
T1 sequence (P08400 210-425): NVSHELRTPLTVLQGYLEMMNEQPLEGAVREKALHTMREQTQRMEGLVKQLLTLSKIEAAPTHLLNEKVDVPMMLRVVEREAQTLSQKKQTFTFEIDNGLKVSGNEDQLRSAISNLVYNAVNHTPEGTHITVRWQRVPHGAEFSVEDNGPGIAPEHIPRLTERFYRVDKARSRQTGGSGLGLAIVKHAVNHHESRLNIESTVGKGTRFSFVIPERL
Method: (§3) E. coli PhoR and EnvZ, and S. aureus PhoR ([…], final concentration) were prepared in kinase buffer. […] DMSO in the assays was maintained to a final concentration 10% (v/v). After 30 min of incubation at room temperature Native polyacrylamide gel electrophoresis (Native-PAGE) loading buffer was added and samples loaded. Coomassie blue staining was used for protein visualization.

S. aureus PhoR (PhoR^S) [3] = target: T2, S. aureus PhoR (PhoR^S) (Staphylococcus aureus, UniProt Q2FXN7); experiment: Aggregation analysis by native-PAGE, PhoR^S; settings: 2 mM (S5 and S6 5 mM), 10% DMSO
T2 sequence (Q2FXN7 entry or part of it): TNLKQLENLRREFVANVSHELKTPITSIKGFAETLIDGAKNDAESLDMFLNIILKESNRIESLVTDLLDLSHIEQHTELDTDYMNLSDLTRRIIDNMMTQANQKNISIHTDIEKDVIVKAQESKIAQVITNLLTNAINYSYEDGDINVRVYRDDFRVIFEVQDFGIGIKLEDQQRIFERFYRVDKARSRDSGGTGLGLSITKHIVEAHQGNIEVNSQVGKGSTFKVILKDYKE
Method: as §3

S. aureus PhoR (PhoR^S) [4] = target: T2, S. aureus PhoR (PhoR^S); experiment: In vitro autophosphorylation kinase assay with γ-32P-ATP, PhoR^S; format: biochemical; settings: read-out: inhibition of PhoR^S autophosphorylation
Procedure, shortened: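 ≈4 μM HK incubated with up to 20 mM fragment in 50 mM Tris HCl pH 8.5, 50 mM KCl, 5 mM MgCl2, 0.5 mM EDTA, 0.1 mM DTT; started with γ-32P-ATP (0.03–0.06 μM ATP final). Quenched with SDS sample buffer/EDTA, run on SDS-PAGE unheated, phosphoprotein quantified by phosphor-imaging.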

Streptococcus pneumoniae = experiment: Antibacterial susceptibility testing (MIC), S. pneumoniae; format: cell-based; settings: strain 49619
Method: Bacterial strains used in this study for antibacterial susceptibility testing (Table S5) were propagated using standard microbiological procedures. Minimal inhibitory concentrations (MICs) were determined following a standard double-dilution method. MICs were recorded as the lowest concentration of the compound where no visible growth was observed. After plating the dilutions around the MIC or growing them in fresh MH media, minimal bactericidal concentration (MBC) was recorded as the lowest concentration of the compound at which no colonies were formed or no growth was observed, respectively. For S. pneumoniae MICs were determined by adapting the standard double-dilution method to anaerobic conditions and of this microorganism (use of Todd Hewitt Yeast extract with 200 U/mL of catalase and continuous monitoring of growth).

[5] = ATCC reference strain 25293, read-out: MIC S. aureus 25293
[6] = DSM20231, strain DSM 20231, read-out: MIC S. aureus DSM 20231
[7] = MRSA clinical isolate 145/08, read-out: MIC S. aureus 145/08
[8] = MRSA clinical isolate 274/08, read-out: MIC S. aureus 274/08
[9] = MRSA, MRSA clinical isolate T4/6, read-out: MIC S. aureus T4/6
[10] = MRSA, MRSA clinical isolate V4180, read-out: MIC S. aureus V4180
[11] = DSM20044, strain DSM 20044, read-out: MIC S. epidermidis DSM 20044
[12] = clinical isolate T7/3, read-out: MIC S. epidermidis T7/3
[13] = clinical isolate T37/8, read-out: MIC S. epidermidis T37/8
[14] = clinical isolate T6119, read-out: MIC S. epidermidis T6119
[15] = strain RP62A (biofilm producer), read-out: MIC S. epidermidis RP62A
[16] = strain RP62A/1 (non-biofilm producer), read-out: MIC S. epidermidis RP62A/1
[17] = ATCC25276, strain ATCC 25276, read-out: MIC E. coli ATCC 25276
[18] = strain CFT 073, read-out: MIC E. coli CFT 073
[19] = MDR clinical isolate NM8, read-out: MIC A. baumannii NM8
[20] = clinical isolate B32/1, read-out: MIC S. maltophilia B32/1

Work on `Nc1nc(-c2ccc(Br)cc2)cs1` [F1, 4-(4-bromophenyl)-1,3-thiazol-2-amine] yielded an MIC (Staphylococcus aureus; [5]) of 125 µg/mL (≈ 490 µM), an MBC (Staphylococcus aureus; DSM20231, strain DSM 20231) greater than 500 µg/mL and an MIC (Staphylococcus aureus; [6]) of 25 µg/mL (≈ 98 µM). It also gave an MIC (Staphylococcus aureus; [7]) of 125 µg/mL (≈ 490 µM), an MIC (Staphylococcus aureus; [8]) of 125 µg/mL (≈ 490 µM) and an MIC (Staphylococcus aureus; [9]) of 125 µg/mL (≈ 490 µM). For the same compound, the MIC (Staphylococcus aureus; [10]) was 125 µg/mL (≈ 490 µM), the MIC (Staphylococcus aureus; MRSA, summary over strains, read-out: MICs for the MRSA strains and S. aureus 25293) was 125 to 500 µg/mL (≈ 490 to 1960 µM) and the MBC ([1]; DSM20044, strain DSM 20044) was 250 µg/mL (≈ 980 µM). For the same compound, the MIC [1, 11] was 4 µg/mL (≈ 15.7 µM), the MIC [1, 12] was 63 µg/mL (≈ 247 µM) and the MIC [1, 13] was greater than 500 µg/mL. For the same compound, the MIC [1, 14] was greater than 500 µg/mL, the MIC [1, 15] was greater than 500 µg/mL and the MIC [1, 16] was 250 µg/mL (≈ 980 µM). The MIC ([1]; summary over clinical isolates, read-out: MICs for S. epidermidis clinical isolates) was 63 µg/mL (≈ 247 µM), the MIC (Escherichia coli; [17]) was greater than 500 µg/mL and the MIC (Escherichia coli; [18]) was greater than 500 µg/mL. The MIC (Streptococcus suis) was greater than 500 µg/mL, the MIC (Acinetobacter baumannii; [19]) was greater than 500 µg/mL and the MIC [2, 20] was greater than 500 µg/mL. It also gave an MIC (Klebsiella pneumoniae) greater than 500 µg/mL, an MIC (Pseudomonas aeruginosa) greater than 500 µg/mL and an HC50 (Hemolysis assay) greater than 500 µg/mL. The “HK aggregation, PhoR^E” value (E. coli PhoR (PhoR^E)) was “do not cause HK aggregation” and the “HK aggregation, PhoR^S” value (S. aureus PhoR (PhoR^S) [3]) was “do not cause HK aggregation”.

For `CC(C)(C)c1ccc(O)c(CNc2ccccc2)c1` [S1.14, 4-tert-butyl-2-[(phenylamino)methyl]phenol], the inhibition at 2000 µM (S. aureus PhoR (PhoR^S) [4]) was greater than 75%, the MIC (Staphylococcus aureus; [5]) was 125 µg/mL (≈ 490 µM) and the MBC (Staphylococcus aureus; DSM20231, strain DSM 20231) was 500 µg/mL (≈ 1960 µM). It also gave an MIC (Staphylococcus aureus; [6]) of 500 µg/mL (≈ 1960 µM), an MIC (Staphylococcus aureus; MRSA clinical isolate 127/08, read-out: MIC S. aureus 127/08) of 250 µg/mL (≈ 979 µM) and an MIC (Staphylococcus aureus; [7]) of 250 µg/mL (≈ 979 µM). The MIC (Staphylococcus aureus; [8]) was 250 µg/mL (≈ 979 µM), the MIC (Staphylococcus aureus; MRSA, MRSA clinical isolate S908, read-out: MIC S. aureus S908) was 250 µg/mL (≈ 979 µM) and the MIC (Staphylococcus aureus; [9]) was 250 µg/mL (≈ 979 µM). The MIC (Staphylococcus aureus; [10]) was 250 µg/mL (≈ 979 µM), the MIC (Staphylococcus aureus; MRSA, summary over susceptible MRSA clinical isolates, read-out: MICs for MRSA strains) was 250 µg/mL (≈ 979 µM) and the “MIC S. aureus DSM 20231” value (Staphylococcus aureus; strain DSM 20231) was 500^¶ μg/ml. For the same compound, the “bacteriostatic or bactericidal for S. aureus DSM 20231” value (Staphylococcus aureus; strain DSM 20231) was “bactericidal”, the MBC ([1]; DSM20044, strain DSM 20044) was 500 µg/mL (≈ 1960 µM) and the MIC [1, 11] was 500 µg/mL (≈ 1960 µM). The MIC [1, 12] was 250 µg/mL (≈ 979 µM), the MIC [1, 13] was 500 µg/mL (≈ 1960 µM) and the MIC [1, 14] was 500 µg/mL (≈ 1960 µM). It also gave an MIC [1, 15] greater than 500 µg/mL, an MIC [1, 16] of 500 µg/mL (≈ 1960 µM) and an MIC ([1]; summary over strains, read-out: MICs for the S. epidermidis strains) of 250 to 500 µg/mL (≈ 979 to 1960 µM). For the same compound, the “MIC S. epidermidis DSM 20044” value ([1]; strain DSM 20044) was 500^¶ μg/ml, the “bacteriostatic or bactericidal for S. epidermidis DSM 20044” value ([1]; strain DSM 20044) was “bactericidal” and the MIC (Escherichia coli; [17]) was greater than 500 µg/mL. For the same compound, the MIC (Escherichia coli; [18]) was greater than 500 µg/mL, the MIC (Streptococcus suis) was 125 µg/mL (≈ 490 µM) and the MIC (Streptococcus pneumoniae) was greater than 500 µg/mL. The MIC (Acinetobacter baumannii; [19]) was 500 µg/mL (≈ 1960 µM), the MIC (Acinetobacter baumannii; MDR clinical isolate NM35, read-out: MIC A. baumannii NM35) was 500 µg/mL (≈ 1960 µM) and the MIC (Acinetobacter baumannii; MDR clinical isolate NM75, read-out: MIC A. baumannii NM75) was 500 µg/mL (≈ 1960 µM). It also gave an MIC (Acinetobacter baumannii; MDR clinical isolate NM109, read-out: MIC A. baumannii NM109) of 250 µg/mL (≈ 979 µM), an MIC (Acinetobacter baumannii; MDR clinical isolate NM124, read-out: MIC A. baumannii NM124) of 250 µg/mL (≈ 979 µM) and an MIC (Acinetobacter baumannii; summary over strains, read-out: MICs for A. baumannii strains) of 250 to 500 µg/mL (≈ 979 to 1960 µM). It also gave an MIC ([2]; clinical isolate B5/5, read-out: MIC S. maltophilia B5/5) of 500 µg/mL (≈ 1960 µM), an MIC ([2]; clinical isolate B6/2, read-out: MIC S. maltophilia B6/2) of 500 µg/mL (≈ 1960 µM) and an MIC [2, 20] of 500 µg/mL (≈ 1960 µM). The MIC ([2]; summary over strains, read-out: MICs for S. maltophilia strains) was 250 to 500 µg/mL (≈ 979 to 1960 µM), the MIC (Klebsiella pneumoniae) was greater than 500 µg/mL and the “MIC K. pneumoniae ATCC700603” value (Klebsiella pneumoniae; strain ATCC 700603) was greater than 500 µg/mL. For the same compound, the MIC (Pseudomonas aeruginosa) was greater than 500 µg/mL, the “MIC P. aeruginosa ATCC 27853” value (Pseudomonas aeruginosa) was greater than 500 µg/mL and the HC50 (Hemolysis assay) was greater than 500 µg/mL. For the same compound, the “HK aggregation, PhoR^E” value (E. coli PhoR (PhoR^E)) was “do not cause HK aggregation” and the “HK aggregation, PhoR^S” value (S. aureus PhoR (PhoR^S) [3]) was “do not cause HK aggregation”.
